Laboratory results: ChEMBL document CHEMBL1921773, “Carbamates of 4'-demethyl-4-deoxypodophyllotoxin: synthesis, cytotoxicity and cell cycle effects” (Bioorg Med Chem Lett, 2011)

Key:
SiHa = assay: Cytotoxicity against human SiHa cells assessed as growth inhibition after 48 hrs by MTT assay; type: functional, cell-based
[1] = Octanol-water partition coefficient, log P of the compound; type: physicochemical
HL-60 = assay: Cytotoxicity against human HL60 cells assessed as growth inhibition after 48 hrs by CCK-8 assay; type: functional, cell-based; conditions: HL-60, 48 h
A549 [2] = assay: Cytotoxicity against human A549 cells assessed as growth inhibition after 48 hrs by MTT assay; type: functional, cell-based; conditions: A549, 48 h
HeLa = assay: Cytotoxicity against human HeLa cells assessed as growth inhibition after 48 hrs by CCK-8 assay; type: functional, cell-based
A549 [3] = assay: Cell cycle arrest in human A549 cells assessed as accumulation of cells at G2/M phase at 0.4 uM after 12 hrs by propidium iodide staining-based flow cytometry (reference value: 3.2%); type: functional
A549 [4] = assay: Cell cycle arrest in human A549 cells assessed as accumulation of cells at S phase at 0.4 uM after 24 hrs by propidium iodide staining-based flow cytometry (reference value: 36.7%); type: functional
A549 [5] = assay: Cell cycle arrest in human A549 cells assessed as accumulation of cells at G2/M phase at 0.4 uM after 24 hrs by propidium iodide staining-based flow cytometry (reference value: 3.2%); type: functional
A549 [6] = assay: Cell cycle arrest in human A549 cells assessed as accumulation of cells at G1 phase at 0.4 uM after 12 hrs by propidium iodide staining-based flow cytometry (reference value: 59.9%); type: functional
A549 [7] = assay: Cell cycle arrest in human A549 cells assessed as accumulation of cells at G1 phase at 0.4 uM after 24 hrs by propidium iodide staining-based flow cytometry (reference value: 59.9%); type: functional
A549 [8] = assay: Cell cycle arrest in human A549 cells assessed as accumulation of cells at S phase at 0.4 uM after 12 hrs by propidium iodide staining-based flow cytometry (reference value: 36.7%); type: functional
A549 [9] = assay: Cell cycle arrest in human A549 cells assessed as accumulation of cells at G2/M phase at 0.4 uM by propidium iodide staining-based flow cytometry (reference value: 3.2%); type: functional; conditions: TDE = time-dependent effect

COc1cc([C@@H]2c3cc4c(cc3C[C@H]3COC(=O)[C@@H]32)OCO4)cc(OC)c1OC(=O)N[C@@H](Cc1ccccc1)C(=O)NC1CCCC1
IC50 (SiHa): 6.87 µM | logP [1]: 2.06 | IC50 (HL-60): 0.988 µM | IC50 (A549 [2]): 2.69 µM | IC50 (HeLa): 3.07 µM

COc1cc([C@@H]2c3cc4c(cc3C[C@H]3COC(=O)[C@@H]32)OCO4)cc(OC)c1OC(=O)N[C@@H](Cc1ccccc1)C(=O)NC1CC1
IC50 (SiHa): 1.12 µM | logP [1]: 1.95 | IC50 (HL-60): 0.416 µM | IC50 (A549 [2]): 3.37 µM | IC50 (HeLa): 0.693 µM

CC[C@H](C)[C@H](NC(=O)Oc1c(OC)cc([C@@H]2c3cc4c(cc3C[C@H]3COC(=O)[C@@H]32)OCO4)cc1OC)C(N)=O
IC50 (SiHa): 3.7 µM | logP [1]: 1.36 | IC50 (HL-60): 1.02 µM | IC50 (A549 [2]): 1.77 µM | IC50 (HeLa): 5.28 µM

COc1cc([C@@H]2c3cc4c(cc3C[C@H]3COC(=O)[C@@H]32)OCO4)cc(OC)c1OC(=O)N[C@@H](Cc1ccccc1)C(N)=O
IC50 (SiHa): 1.07 µM | logP [1]: 1.35 | IC50 (HL-60): 0.94 µM | IC50 (A549 [2]): 3.41 µM | IC50 (HeLa): 1.72 µM

COc1cc([C@@H]2c3cc4c(cc3[C@@H](O[C@@H]3O[C@@H]5CO[C@@H](C)O[C@H]5[C@H](O)[C@H]3O)[C@H]3COC(=O)[C@H]23)OCO4)cc(OC)c1O [ETOPOSIDE]
IC50 (SiHa): 40.4 µM | logP [1]: 0.69 | IC50 (HL-60): 2.85 µM | IC50 (A549 [2]): 24.9 µM | IC50 (HeLa): 2.76 µM

COc1cc([C@@H]2c3cc4c(cc3C[C@H]3COC(=O)[C@@H]32)OCO4)cc(OC)c1OC(=O)N[C@H](C(=O)NC1CCCC1)C(C)C
IC50 (SiHa): 14.6 µM | logP [1]: 2.57 | IC50 (HL-60): 1.03 µM | IC50 (A549 [2]): 1.91 µM | IC50 (HeLa): 20.3 µM

COc1cc([C@@H]2c3cc4c(cc3C[C@H]3COC(=O)[C@@H]32)OCO4)cc(OC)c1OC [DESOXYPODOPHYLLOTOXIN]
IC50 (SiHa): 6.01 µM | logP [1]: 3.16 | IC50 (HL-60): 0.47 µM | IC50 (A549 [2]): 1.38 µM | IC50 (HeLa): 1.98 µM

COc1cc([C@@H]2c3cc4c(cc3C[C@H]3COC(=O)[C@@H]32)OCO4)cc(OC)c1O [4'-DEMETHYLDEOXYPODOPHYLLOTOXIN]
IC50 (SiHa): 53.3 µM | logP [1]: 2.92 | IC50 (HL-60): 2.96 µM | IC50 (A549 [2]): 1.8 µM | IC50 (HeLa): 43 µM

COc1cc([C@@H]2c3cc4c(cc3C[C@H]3COC(=O)[C@@H]32)OCO4)cc(OC)c1OC(=O)N[C@H](C(N)=O)C(C)C
IC50 (SiHa): 2.89 µM | logP [1]: 0.84 | IC50 (HL-60): 1.03 µM | IC50 (A549 [2]): 1.49 µM | IC50 (HeLa): 3.83 µM

COc1cc([C@@H]2c3cc4c(cc3C[C@H]3COC(=O)[C@@H]32)OCO4)cc(OC)c1OC(=O)N[C@H](CCSC)C(N)=O
Activity (A549 [3]): 27.7% | Activity (A549 [4]): 30.7% | Activity (A549 [5]): 58.1% | IC50 (SiHa): 0.614 µM | Activity (A549 [6]): 22.6% | logP [1]: 0.26 | Activity (A549 [7]): 11.2% | IC50 (HL-60): 0.0893 µM | IC50 (A549 [2]): 0.887 µM | Activity (A549 [8]): 49.7% | Activity (A549 [9]): tde | IC50 (HeLa): 0.528 µM

COc1cc([C@@H]2c3cc4c(cc3C[C@H]3COC(=O)[C@@H]32)OCO4)cc(OC)c1OC(=O)N[C@H](C(=O)NC1CC1)C(C)C
IC50 (SiHa): 0.432 µM | logP [1]: 1.45 | IC50 (HL-60): 0.213 µM | IC50 (A549 [2]): 2.31 µM | IC50 (HeLa): 0.433 µM

COc1cc([C@@H]2c3cc4c(cc3C[C@H]3COC(=O)[C@@H]32)OCO4)cc(OC)c1OC(=O)N[C@@H](C)C(N)=O
IC50 (SiHa): 0.696 µM | logP [1]: -0.09 | IC50 (HL-60): 0.397 µM | IC50 (A549 [2]): 4.23 µM | IC50 (HeLa): 0.743 µM

COc1cc([C@@H]2c3cc4c(cc3C[C@H]3COC(=O)[C@@H]32)OCO4)cc(OC)c1OC(=O)N[C@@H](CCSC)C(N)=O
IC50 (SiHa): 4.32 µM | logP [1]: 0.28 | IC50 (HL-60): 0.711 µM | IC50 (A549 [2]): 0.86 µM | IC50 (HeLa): 2.03 µM

COc1cc([C@@H]2c3cc4c(cc3C[C@H]3COC(=O)[C@@H]32)OCO4)cc(OC)c1OC(=O)N[C@@H](CC(C)C)C(N)=O
IC50 (SiHa): 0.877 µM | logP [1]: 1.26 | IC50 (HL-60): 0.67 µM | IC50 (A549 [2]): 9.93 µM | IC50 (HeLa): 0.703 µM

COc1cc([C@@H]2c3cc4c(cc3C[C@H]3COC(=O)[C@@H]32)OCO4)cc(OC)c1OC(=O)N[C@H](Cc1ccccc1)C(N)=O
IC50 (SiHa): 0.416 µM | logP [1]: 1.33 | IC50 (HL-60): 0.231 µM | IC50 (A549 [2]): 1.61 µM | IC50 (HeLa): 0.575 µM
